Laboratory results taken from US20200223889A1, “Bicyclic Compounds Capable of Binding to Melanocortin 4 Receptor” (Novo Nordisk A/S, priority 2017, published 2020).
Positions of bridges follow the written chain, without caps; N, C: chain ends. Non-standard residues stand in square brackets, D forms with d. Residues, ends and D or L forms follow the SMILES beside them. Thz = O=C(O)[C@@H]1CSCN1

Columns and labels:
human MC4R = target: T1, human MC4R (Homo sapiens, UniProt P32245); assay: Functional cAMP assay (CisBio HTRF) in BHK cells expressing human MC4R; format: cell-based
T1 construct: expressed in transfected cells
Outline: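 Compound working solutions, 10-fold dilutions from 2 μM at twice final strength, in buffer containing 1 mM IBMX, were incubated 30 min at 25 °C with BHK cells stably carrying human MC4R or MC1R. Accumulated cAMP was then detected by competitive HTRF after 1 h at 25 °C and fitted by non-linear regression.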

[1] = In vivo acute food intake model (BioDAQ) in C57BL/6J male mice; conditions: single subcutaneous dose 1 mg/kg, cumulative food intake
Protocol: The MC4R system is central to appetite regulation and agonists are known inhibit food intake. In order to screen compounds in a relevant in vivo model, efficacy was assessed by determining the effect of the compound on reducing food intake acutely in mice.
All animal protocols were approved by an Institutional Animal Care and Use Committee and Ethical Review Committee of Novo Nordisk. Animals were housed according to Novo Nordisk rodent housing standards, and were given ad libitum access to food and water under controlled lighting (12 h:12 h light/dark cycle; lights off 11:00-23:00), temperature (23±2° C.) and relative humidity (50±20%) conditions. For each acute food intake study C57BL/6J male mice (25-30 grams body weight) were acclimated for two weeks to the appropriate light cycle and to single-housing (one mouse per cage) in cages linked to a BioDAQ automated food intake system (Research Diets Inc., New Brunswick, N.J. USA). The animals were also acclimated to new food (Research Diets 12450B, 10% kcal fat) during this time.
The BioDAQ is a computer automated scientific instrument for Biological Data Acquisition of food intake in rodents and measures food intake from each cage every 15 minutes. A total of 32 animals can be accommodated in the system per study, therefore, animals were randomized into 4 groups of n=8 for each study. […] Animals were fasted ˜4 hr prior to dosing. Vehicle (10 mM phosphate; 140 mM sodium chloride) or compound was dosed at a volume of 10 ml per kg subcutaneously approximately 20 minutes prior to the start of the dark cycle (compound chem no. and dosages are indicated in table 2 below). After dosing, food intake was recorded for approximately 24 hours.
The inhibitory effect of compounds on food intake was generally well-correlated with in vitro binding affinity on the human MC4 receptor and with plasma stability of the compound. Most studies were conducted as dose response studies with vehicle and the compound at 3 doses (0.3, 1 and 3 mg/kg). Some studies were done for the purpose of dose-range finding, while others were done to comparatively assess the effect of 3 compounds at the same dose. Maximal effects on food intake occurred within the first 1-5 hours post-dose. The comparative effect of compounds across studies on food intake was assessed by normalizing measurements as % effect on cumulative food intake after a single subcutaneous dose, relative to vehicle. Results are reported in Table 2 as % effect on food intake at 3 hours post dose.

T1 sequence (P32245 whole entry): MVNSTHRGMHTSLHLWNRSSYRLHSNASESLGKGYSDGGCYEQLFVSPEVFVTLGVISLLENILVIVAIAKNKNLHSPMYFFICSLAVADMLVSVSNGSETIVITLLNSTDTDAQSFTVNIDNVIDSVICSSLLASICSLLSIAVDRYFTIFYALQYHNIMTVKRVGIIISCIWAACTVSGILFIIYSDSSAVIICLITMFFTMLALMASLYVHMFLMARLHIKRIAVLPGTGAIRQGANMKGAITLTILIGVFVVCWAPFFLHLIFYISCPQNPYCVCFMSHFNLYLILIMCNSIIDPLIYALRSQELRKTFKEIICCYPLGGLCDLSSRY

**Q.** What does the source list for `C[C@@H]1NC(=O)[C@H](CCCCN)NC(=O)[C@@H]2CSSC[C@H](NC(=O)[C@H](Cc3c[nH]c4ccccc34)NC(=O)[C@H](C)NC(=O)[C@@H](CCCCN)NC1=O)C(=O)N1CSC[C@H]1C(=O)N[C@@H](Cc1c[nH]cn1)C(=O)N[C@H](Cc1ccccc1)C(=O)N[C@@H](Cc1c[nH]cn1)C(=O)N[C@@H](Cc1c[nH]c3ccccc13)C(=O)N2` [Chem. 114, c[c[Cys-THAZ-His-D-Phe-His-Trp- Cys]-Lys-Ala-D-Lys-Ala-Trp]] (cyclo(AWC[Thz]H[dF]HWCKA[dK]); disulfide 3-9)?
**A.** EC50 (human MC4R; BHK cells expressing human MC4R, '>' = highest dose used with no response, read-out: MC4R cAMP EC50): 0.04 nM; MC1R/MC4R cAMP EC50 ratio (human MC4R; MC1R cAMP EC50 divided by MC4R cAMP EC50): 2844; % Effect on food intake at 3 hours post dose, relative to vehicle [1]: −64 ± 6%
